Tests used:
Type in all cases: cell-based
[1] = target: T1, pERK1/2 (Thr202/Tyr204), NCI-1H358 (KRAS G12C) (Homo sapiens, UniProt P01116, G12C); experiment: Assay of intracellular pERK1/2 (Thr202/Tyr204) phosphorylation in NCI-H358 cells (KRAS G12C); conditions: pERK1/2, 2 days, read-out: NCI-H358 (KRAS G12C) IC50
T1 construct: pERK1/2 HTRF read-out
Outline: (§1)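 Cells (10000-12000/well) exposed to 3-fold compound dilutions for 2 days at 37 °C, then lysed; pERK1/2 (Thr202/Tyr204) measured by HTRF with d2 and cryptate antibodies, 665/615 nm ratio.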

[2] = target: T2, pERK1/2 (Thr202/Tyr204), NCI-1H441 (KRAS G12V) (Homo sapiens, UniProt P01116, G12V); experiment: Assay of intracellular pERK1/2 (Thr202/Tyr204) phosphorylation in NCI-H441 cells (KRAS G12V); conditions: pERK1/2, 2 days, read-out: NCI-H441 (KRAS G12V) IC50
T2 construct: pERK1/2 HTRF read-out
T2 sequence (P01116 1-188 isoform P01116-2 G12V): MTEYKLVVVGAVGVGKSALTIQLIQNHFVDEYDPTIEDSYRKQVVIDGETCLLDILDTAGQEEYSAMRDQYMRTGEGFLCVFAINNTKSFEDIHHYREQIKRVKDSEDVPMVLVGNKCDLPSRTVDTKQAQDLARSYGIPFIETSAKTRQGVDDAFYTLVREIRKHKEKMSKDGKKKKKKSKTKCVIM
Outline: as §1

[3] = target: T3, pERK1/2 (Thr202/Tyr204), PANC-1 (KRAS G121D) (Homo sapiens, UniProt P01116, G12D); experiment: Assay of intracellular pERK1/2 (Thr202/Tyr204) phosphorylation in PANC-1 cells (KRAS G12D); conditions: pERK1/2, 2 days, read-out: PANC-1 (KRAS G12D) IC50
T3 construct: pERK1/2 HTRF read-out
T3 sequence (P01116 1-188 isoform P01116-2 G12D): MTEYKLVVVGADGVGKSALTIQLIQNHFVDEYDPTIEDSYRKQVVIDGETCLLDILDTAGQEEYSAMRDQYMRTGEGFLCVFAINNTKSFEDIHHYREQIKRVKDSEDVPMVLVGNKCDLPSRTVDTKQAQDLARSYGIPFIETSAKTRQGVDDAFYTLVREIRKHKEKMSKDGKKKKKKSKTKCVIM
Outline: as §1

T1 sequence (P01116 1-188 isoform P01116-2 G12C): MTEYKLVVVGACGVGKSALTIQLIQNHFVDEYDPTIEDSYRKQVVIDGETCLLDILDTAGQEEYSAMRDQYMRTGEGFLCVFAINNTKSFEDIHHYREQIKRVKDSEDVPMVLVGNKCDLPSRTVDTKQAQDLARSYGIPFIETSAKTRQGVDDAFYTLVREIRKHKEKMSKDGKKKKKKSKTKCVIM

Structure (SMILES) | IC50 [1] [nM] | IC50 [2] [nM] | IC50 [3] [nM]
[2H]C([2H])(Oc1nc2c3c(nc(-c4cc(O)cc(Cl)c4C4CC4)c(F)c3n1)OCCN2[C@@H](C)c1cccnc1N)[C@@H]1C[C@@H](F)CN1C([2H])([2H])[2H] (single isomer, unassigned) [Compound 143, 3-(10-((R or S)-1-(2-aminopyridin-3-yl)ethyl)-4-fluoro-2-(((2S,4)-4-fluoro-1-(methyl-d3)pyrrolidin-2-yl)methoxy-d2)-9,10-dihydro-8H-7-oxa-1,3,6,10-tetraazacyclohepta[de]naphthalen-5-yl)-5-chloro-4-cyclopropylphenol] | 0.5 | 2 | 21
CC(c1cccnc1N)N1CCOc2nc(-c3cc(N)c(F)c(Cl)c3C(F)(F)F)c(F)c3nc(OC[C@@]45CCCN4C[C@H](F)C5)nc1c23 (stereo partly drawn) [Compound 168] | 0.2 | 0.4 | 2
Cc1c(F)c(N)cc(-c2nc3c4c(nc(OC[C@@]56CCCN5C[C@@H](F)C6)nc4c2F)N(C(C)c2cccnc2N)CCO3)c1C(F)(F)F (stereo partly drawn) [Compound 165] | 1 | 3 | 47
Cc1c(F)c(N)cc(-c2nc3c4c(nc(OC[C@@]56CCCN5C[C@H](F)C6)nc4c2F)N([C@@H](C)c2cc(F)cnc2N)[C@@H](C)CO3)c1C(F)(F)F [Compound 366] | > 100 | > 100 | > 100
CC(c1cccnc1N)N1CCOc2nc(-c3cc(O)cc(F)c3C3CC3)c(F)c3nc(OC[C@@H]4CCN4CC(F)F)nc1c23 (single isomer, unassigned) [Compound 24, 3-(10-((R or S)-1-(2-aminopyridin-3-yl)ethyl)-2-(((S)-1-(2,2-difluoroethyl)azetidin-2-yl)methoxy)-4-fluoro-9,10-dihydro-8H-7-oxa-1,3,6,10-tetraazacyclohepta[de]naphthalen-5-yl)-4-cyclopropyl-5-fluorophenol] | 3 | 11 | 290
CC(c1cccnc1N)N1c2nc(OC[C@@H]3C[C@@H](F)CN3C)nc3c(F)c(-c4cc(O)cc(Cl)c4C4CC4)nc(c23)OC[C@@H]1C (stereo partly drawn) [Compound 291] | 0.1 | 0.3 | 1
[2H]C1([2H])CN(C(C)c2cccnc2N)c2nc(OC[C@@]34CCCN3C[C@H](F)C4)nc3c(F)c(-c4cc(N)c(F)c(C)c4C(F)(F)F)nc(c23)O1 (stereo partly drawn) [Compound 157] | 0.3 | 0.5 | 2
Cc1cc(N)cc(-c2nc3c4c(nc(OC[C@@H]5CCCN5CCO)nc4c2F)N(C(C)c2cccnc2N)CCO3)c1C(F)(F)F (stereo partly drawn) [Compound 108] | 12 | 26 | > 100
Cc1c(F)c(N)cc(-c2nc3c4c(nc(OC[C@@H]5CCCN5C)nc4c2F)N(C(C)c2cccnc2N)CCO3)c1C(F)(F)F (single isomer, unassigned) [Compound 86, 3-((R or S)-1-(5-(5-amino-4-fluoro-3-methyl-2-(trifluoromethyl)phenyl)-4-fluoro-2-(((S)-1-methylpyrrolidin-2-yl)methoxy)-8,9-dihydro-10H-7-oxa-1,3,6,10-tetraazacyclohepta[de]naphthalen-10-yl)ethyl)pyridin-2-amine] | 29 | 43 | > 100
CCC(c1cccnc1N)N1CCOc2nc(-c3cc(N)c(F)c(F)c3C(F)(F)F)c(F)c3nc(OC[C@@]45CCCN4C[C@H](F)C5)nc1c23 (single isomer, unassigned) [Compound 216, 3-((R or S)-1-(5-(5-amino-3,4-difluoro-2-(trifluoromethyl)phenyl)-4-fluoro-2-(((2R,7aS)-2-fluorotetrahydro-1H-pyrrolizin-7a(5H)-yl)methoxy)-8,9-dihydro-10H-7-oxa-1,3,6,10-tetraazacyclohepta[de]naphthalen-10-yl)propyl)pyridin-2-amine] | 2 | 2 | 48
Cc1c(F)c(N)cc(-c2nc3c4c(nc(OC[C@@]56CCCN5C/C(=C\F)C6)nc4c2F)N(C(C)c2cccnc2N)CCO3)c1C(F)(F)F (stereo partly drawn) [Compound 230] | 0.1 | 0.5 | 1
Cc1cc(N)cc(-c2nc3c4c(nc(OC[C@@H]5C[C@@H](F)CN5C)nc4c2F)N(C(C)c2cccnc2N)[C@@H](C)CO3)c1C(F)(F)F (single isomer, unassigned) [Compound 283, 3-((R or S)-1-((S)-5-(5-amino-3-methyl-2-(trifluoromethyl)phenyl)-4-fluoro-2-(((2S,4R)-4-fluoro-1-methylpyrrolidin-2-yl)methoxy)-9-methyl-8,9-dihydro-10H-7-oxa-1,3,6,10-tetraazacyclohepta[de]naphthalen-10-yl)ethyl)pyridin-2-amine] | 55 | > 100 | > 100
CC(c1cccnc1N)N1CCOc2nc(-c3cc(N)c(F)c(Cl)c3C(F)(F)F)c(F)c3nc(OCC45CC(F)CN4CC(F)C5)nc1c23 (single isomer, unassigned; diastereomer 2) [Compound 246, (*)3-(1-(5-(5-amino-3-chloro-4-fluoro-2-(trifluoromethyl)phenyl)-2-(((2R or 2S,6R or 6S)-2,6-difluorotetrahydro-1H-pyrrolizin-7a(5H)-yl)methoxy)-4-fluoro-8,9-dihydro-10H-7-oxa-1,3,6,10-tetraazacyclohepta[de]naphthalen-10-yl)ethyl)pyridin-2-amine (diastereomer 2)] | 0.4 | 2 | 63
CC(c1cccnc1N)N1c2nc(OC[C@@]34CCCN3C[C@H](F)C4)nc3c(F)c(-c4c5cn[nH]c5cc5cccc(F)c45)nc(c23)OC[C@@H]1C (stereo partly drawn) [Compound 362] | 0.2 | 0.3 | 0.4
CC(c1cccnc1N)N1c2nc(OC[C@@]34CCCN3C[C@H](F)C4)nc3c(F)c(-c4c(C5CC5)c(Cl)cc5[nH]ncc45)nc(c23)OC[C@@H]1C (stereo partly drawn) [Compound 332] | 0.4 | 0.9 | 0.3
Cc1cc(N)cc(-c2nc3c4c(nc(OC[C@@]56CCCN5CC5(CC5(F)F)C6)nc4c2F)N(C(C)c2cccnc2N)CCO3)c1C(F)(F)F (stereo partly drawn) [Compound 237] | 0.3 | 0.4 | 1
CC(c1cccnc1N)N1CCOc2nc(-c3cc(O)cc(F)c3C3CC3)c(F)c3nc(OC[C@@H]4CCCN4C)nc1c23 (single isomer, unassigned) [Compound 35, 3-(10-((R or S)-1-(2-aminopyridin-3-yl)ethyl)-4-fluoro-2-(((S)-1-methylpyrrolidin-2-yl)methoxy)-9,10-dihydro-8H-7-oxa-1,3,6,10-tetraazacyclohepta[de]naphthalen-5-yl)-4-cyclopropyl-5-fluorophenol] | 18 | 37 | 399
CC(c1cccnc1N)N1c2nc(OC[C@@]34CCCN3C[C@H](F)C4)nc3c(F)c(N4CC(O)Cc5ccccc54)nc(c23)OC[C@@H]1C (stereo partly drawn) [Compound 331] | 38 | > 100 | > 100
Cc1cc(N)cc(-c2nc3c4c(nc(OCC5CCOCC5)nc4c2F)N([C@@H](C)c2cccnc2N)CCO3)c1C(F)(F)F (single isomer, unassigned) [Compound 118, (R or S)-3-(1-(5-(5-amino-3-methyl-2-(trifluoromethyl)phenyl)-4-fluoro-2-((tetrahydro-2H-pyran-4-yl)methoxy)-8,9-dihydro-10H-7-oxa-1,3,6,10-tetraazacyclohepta[de]napthalen-10-yl)ethyl)pyridin-2-amine] | > 100 | > 100 | > 100
CC(c1cccnc1N)N1CCOc2nc(-c3cc(N)cc(Cl)c3C(F)(F)F)c(F)c3nc(OC[C@@]45CCCN4C[C@H](F)C5)nc1c23 (stereo partly drawn) [Compound 63] | 0.4 | 0.5 | 2
CC(c1cccnc1N)N1c2nc(OC[C@@]34CCCN3C[C@H](F)C4)nc3cc(-c4c5ccccc5cc5[nH]ncc45)nc(c23)OC[C@@H]1C (stereo partly drawn) [Compound 386] | 0.4 | 0.7 | 6
CC(c1cccnc1N)N1CCOc2nc(-c3c(C(F)(F)F)ccc4[nH]ncc34)c(F)c3nc(OC[C@@H]4CCN4CC(F)F)nc1c23 (stereo partly drawn) [Compound 25] | 7 | 14 | 593
CC(c1cccnc1N)N1c2nc(OC[C@@H]3C[C@@H](F)CN3C)nc3c(F)c(-c4cc(N)cc(Cl)c4C(F)(F)F)nc(c23)OC[C@@H]1C (single isomer, unassigned) [Compound 287, 3-((R or S)-1-((S)-5-(5-amino-3-chloro-2-(trifluoromethyl)phenyl)-4-fluoro-2-(((2S,4R)-4-fluoro-1-methylpyrrolidin-2-yl)methoxy)-9-methyl-8,9-dihydro-10H-7-oxa-1,3,6,10-tetraazacyclohepta[de]naphthalen-10-yl)ethyl)pyridin-2-amine] | 0.2 | 0.4 | 2
[2H]C([2H])(Oc1nc2c3c(nc(-c4cc(N)c(F)cc4C(F)(F)F)c(F)c3n1)OCCN2C(C)c1cccnc1N)[C@@H]1C[C@@H](F)CN1C([2H])([2H])[2H] (stereo partly drawn) [Compound 136] | 17 | 61 | > 100
Cc1c(F)c(N)cc(-c2nc3c4c(nc(OC[C@@]56CCCN5C[C@H](F)C6)nc4c2F)N(C(C)c2ccc[n+]([O-])c2N)CCO3)c1C(F)(F)F (stereo partly drawn) [Compound 226] | 43 | > 100 | > 100

From patent US20260356851A1, “TRICYCLIC COMPOUNDS AND USES THEREOF” (HUTCHMED LIMITED, priority 2023, published 2026)
